According to patent publication US20110009454A1, “COMPOSITION FOR AGRICULTURAL USE FOR CONTROLLING OR PREVENTING PLANT DISEASES CAUSED BY PLANT PATHOGENS” (SUMITOMO CHEMICAL COMPANY, LIMITED, priority 2008, published 2011):

System: Grape Downy Mildew (Plasmopara viticola)
Test: Test Example 6: treating grape downy mildew, foliage application
Conditions: 500 ppm, foliage application 1 day after inoculation (curative), grape (Berry-A or Chardonnay seedling), 5 days green house then 1 day high humidity
Method: Such control effect was evaluated by visually observing the area of blotch on a test plant during a test and then comparing the area of the blotch of a plant treated with the controlling reagent of the present invention with the area of the blotch of an untreated plant.
A plastic pot was filled with sandy soil, and grape (variety: Berry-A or Chardonnay seedling) was then seeded. The grape plants were allowed to grow in a green house for 40 days. A water suspension of zoosporangium of grape Plasmopara viticola was inoculated to the aforementioned pot by spaying it. Thereafter, the grape plants were left at 23° C. at a high humidity for 1 day, and they were then air-dried, so as to obtain grape downy mildew-infected nursery plants. […] The prepared flowable formulations were set to a predetermined concentration (500 ppm) by diluting them with water, and they were then subjected to foliage application such that they could be sufficiently attached to the leaves of the aforementioned nursery grape plants. After completion of the foliage application, the plants were subjected to air-drying, and they were then left at 23° C. in a green house for 5 days. Thereafter, the plants were further left at 23° C. at a high humidity for 1 day. Thereafter, the affected areas thereof were examined.

For `Cc1ccc(Oc2ccc(CNC(=O)c3cccnc3N)s2)cc1` [compound 236], the “affected areas of treated plants relative to affected areas of untreated plants” value was ≤ 30%.
